# Test system: patients with Meniere's disease and endolymphatic hydrops associated diseases
# Test: Clinical course of vertigo, aural fullness, tinnitus and hearing in clinical cases
# Type: in vivo, patient
# Source text: Therapeutic method of our invention is always performed after general examinations and standard laboratory examinations, such as blood pressure, plasma electrolytes, and urine osmolality. After consideration of body weight, age, sex, and life style, we directed the patients to take adequate water (see below) every day in combination with short-term application with isosorbite®. During the initial stage of the water intake method, recommended volume of water intake for adult male, weighing 60 kg, is calculated as 1.8-2.1 l per day according to the following formula (F 1). […] They seem to be nervous and live under the very strong psychological pressure.
# The present invention is explained in detail by mentioning clinical cases.
# [1] = case 1, water intake 2 lit./day continued, up to March 2004
compound,measurement,setting,value
"O [water intake, water]",right hearing,[1],within normal range
same,rotatory vertigo,[1],no rotatory vertigo was noted
same,rotatory vertigo,"case 2, water intake 1.5 lit./day from Feb. 21, 2003 in addition to isosorbide 21 g/dose and difenidol hydrochloride 25 mg/dose on demand","remitted after May 3, 2003"
same,resound or aural fullness (in the right ear),"case 2, water intake 1.5 lit./day in addition to isosorbide and difenidol hydrochloride on demand","remitted after Aug. 18, 2003"
same,hearing level,"case 2, water intake 1.5 lit./day in addition to isosorbide and difenidol hydrochloride on demand, to February 2004",maintained within normal range
same,hearing,"case 3, water intake, up to January 2004",maintained within normal range
same,rotatory vertigo,"case 3, water intake, up to January 2004, except one attack Mar. 16, 2001",no rotatory vertigo was recognized
same,hearing of the right low tone,"case 4, water intake 1.5 lit./day, October 2003 to January 2004",maintained improved state
same,rotatory vertigo,"case 5, water intake 1.5 lit./day","could not be recognized after Oct. 24, 2002"
same,high frequency sensorineural hearing loss of the left ear,"case 5, water intake 1.5 lit./day plus isosorbide 63 g t.d.s. and adenosine triphosphate 300 mg t.d.s for 2 weeks","improved in Oct. 24, 2002"
same,low frequency sensorineural hearing loss of the left ear,"case 5, water intake 1.5 lit./day plus isosorbide and adenosine triphosphate for 2 weeks","improved from Nov. 29, 2002"
same,left hearing compared with right hearing,"case 5, water intake 1.5 lit./day, from Jul. 18, 2003",became equal level to the right hearing
same,left ear tinnitus,"case 5, water intake 1.5 lit./day, to January 2004",gradually remitted
same,rotatory vertiginous attack accompanied by tinnitus,"case 6, water intake with isosorbide and difenidol hydrochloride on demand, after Dec. 21, 2001 until February 2004",no rotary vertiginous attack
same,low frequency sensorineural hearing loss of the left ear,"case 7, water intake 300 ml before going to sleep in addition to steroid, VB12 and PGE1",improved
same,left hearing,"case 7, water intake continued (1.5 lit./day after September 2002), until now",maintained the improved state
same,right hearing level lower as compared with the left hearing level in all frequency range,"case 8, water intake, at present, 2 -25 dB at initial examination",5 -15 dB
same,rotatory vertigo,"case 8, water intake, during the progress after the initial examination",No rotatory vertigo could be recognized
same,outcome of most of patients with Meniere's disease,water intake method in combination with short-term isosorbide,improved without re-attack for 1-2 years

# Source: patent US20060003016A1, “Therapeutic method for endolymphatic hydrops associated diseases” (priority 2004, published 2006)
